Data: US9102623B2, “Pyridinecarboxamides, useful-plant-protecting composition comprising them and processes for their preparation and their use” (Bayer Cropscience AG, priority 2007, dated 2015)

What was measured:
Format in all cases: in vivo
corn [1] = experiment: Pre-emergence safener action in corn with the herbicide isoxaflutol; details: greenhouse, visual scoring after 3 to 4 weeks
Source text: (§1) The damage to the plants is scored visually using a scale of 0-100%, in comparison to control plants:
(§2) 0%=no noticeable effect compared to the untreated plant
(§3) 100%=the treated plants dies.
Seeds or rhizome pieces of monocotyledonous and dicotyledonous weed plants and crop plants were placed in sandy loam soil in plastic pots and covered with soil. The herbicide/safener active compound combinations according to the invention, formulated as suspension emulsion concentrates, and in parallel tests the individual active compounds formulated in a corresponding manner, were then, at various dosages at a water application rate of 600 to 800 l/ha (converted), applied to the surface of the covering soil.
After the treatment, the pots were placed in the greenhouse and kept under good growth conditions for the weeds and the crop plants. Visual scoring of the plant damage or emergence damage was carried out after the test plants had emerged after a test period of 3 to 4 weeks, in comparison to untreated controls.

barley = experiment: Post-emergence safener action in barley with the herbicide mesosulfuron-methyl; details: greenhouse, visual scoring of damage
Source text: as §1, §2, §3
(§4) Seeds or rhizome pieces of monocotyledonous and dicotyledonous harmful plants and crop plants are placed in sandy loam soil in plastic pots, covered with soil and cultivated in the greenhouse under good growth conditions. Alternatively, harmful plants encountered in paddy rice cultivation are cultivated in pots in which the surface of the soil is covered by up to 2 cm of water. Three weeks after sowing, the test plants are treated at the three-leaf stage. The herbicide/safener active compound combinations according to the invention, formulated as emulsion concentrates, and in parallel tests the individual active compounds formulated in a corresponding manner, are sprayed at various dosages at a water application rate of […] (converted) onto the green parts of the plants, and, after the test plants were left to stand in the greenhouse for about 2 to 3 weeks under optimum growth conditions, the effect of the preparations is scored visually in comparison to untreated controls. In the case of rice or harmful plants encountered in the cultivation of rice, the active compounds are also added directly to the irrigation water (application analogously to the so-called granule application) or sprayed onto the plants and into the irrigation water. […]

corn [2] = experiment: Post-emergence safener action in corn with the herbicide tembotrione; details: greenhouse, visual scoring of damage
Source text: as §1, §2, §3, §4

Structure (SMILES): CCC(CC)NC(=O)c1ccc(C(F)(F)C(F)(F)F)[nH]c1=O [Compound 392]
- safener action in combination with the herbicide isoxaflutol (corn [1]): good safener action
- safener action for the herbicide mesosulfuron-methyl (barley): good safener action

Structure (SMILES): CCC(C)NC(=O)c1ccc(C(F)(F)C(F)(F)C(F)(F)F)[nH]c1=O (centres unmarked) [Compound 1636]
- safener action for the herbicide tembotrione (corn [2]): good safener action
- safener action in combination with the herbicide isoxaflutol (corn [1]): good safener action
- safener action for the herbicide mesosulfuron-methyl (barley): good safener action

Structure (SMILES): CNC(=O)c1ccc(C(F)(F)C(F)F)[nH]c1=O [Compound 1368, N-Methyl-2-oxo-6-(1,1,2,2-tetrafluoroethyl)-1,2-dihydropyridine-3-carboxamide]
- safener action for the herbicide tembotrione (corn [2]): good safener action
- safener action in combination with the herbicide isoxaflutol (corn [1]): good safener action

Structure (SMILES): CCNC(=O)c1ccc(C(F)(F)F)[nH]c1=O [Compound 2]
- safener action in combination with the herbicide isoxaflutol (corn [1]): good safener action
- safener action for the herbicide mesosulfuron-methyl (barley): good safener action

Structure (SMILES): CC(C)CNC(=O)c1ccc(C(F)(F)C(F)(F)C(F)(F)F)[nH]c1=O [Compound 1625]
- safener action for the herbicide tembotrione (corn [2]): good safener action
- safener action in combination with the herbicide isoxaflutol (corn [1]): good safener action

Structure (SMILES): CONC(=O)c1ccc(C(F)(F)Cl)[nH]c1=O [Compound 194]
- safener action in combination with the herbicide isoxaflutol (corn [1]): good safener action
- safener action for the herbicide mesosulfuron-methyl (barley): good safener action

Structure (SMILES): CCC(C)NC(=O)c1ccc(C(F)(F)Cl)[nH]c1=O (centres unmarked) [Compound 155]
- safener action in combination with the herbicide isoxaflutol (corn [1]): good safener action
- safener action for the herbicide mesosulfuron-methyl (barley): good safener action

Structure (SMILES): NC(=O)c1ccc(C(F)(F)C(F)(F)F)[nH]c1=O [Compound 341, 2-Oxo-6-(pentafluoroethyl)-1,2-dihydropyridine-3-carboxamide]
- safener action for the herbicide tembotrione (corn [2]): good safener action
- safener action in combination with the herbicide isoxaflutol (corn [1]): good safener action
- safener action for the herbicide mesosulfuron-methyl (barley): good safener action

Structure (SMILES): CCNC(=O)c1ccc(C(F)(F)C(F)(F)C(F)(F)F)[nH]c1=O [Compound 1597]
- safener action for the herbicide tembotrione (corn [2]): good safener action
- safener action in combination with the herbicide isoxaflutol (corn [1]): good safener action
